Measured values published in patent US7842294B2, “Proteins belonging to the Bcl-2 family and fragments thereof, and their use in cancer patients” (Survac APS, priority 2003, dated 2010).
Where “and” joins values, the source holds several entries; their conditions need not be identical. Equal entries are not always repeated. Where two headings read alike, the source gives them in different places. Ends that are not written are not given here.

Tests used:
[1] = biological target: T1, HLA-A2 (Homo sapiens, UniProt P04439, D140Y/D185E/D98H/E176V/E277Q/G131W/G231S/I119V/I121R/I166T/I218V/L300P/L318F/N151K/N90K/P208A/P217A/Q86G/Q94H/R138H/R169H/T345S); assay: Assembly assay for peptide binding to MHC class I molecules (stabilisation of HLA from TAP-deficient T2 cells); conditions: recovery of HLA-A2 measured at 50, 5, 0.5, 0.05 μM peptide
T1 construct: empty HLA molecules released upon cell lysis, from the TAP-deficient cell line T2; endogenous in cells; host or cells: T2 (TAP-deficient cell line), metabolically labelled with [35S]-methionine and lysed
Experimental: This assembly assay is carried out as described previously (2), and it is based on stabilisation of the HLA molecule after loading of peptide to the peptide transporter deficient cell line T2. Subsequently, correctly folded stable HLA heavy chains are immunoprecipitated using conformation dependent antibodies and the peptide binding is quantitated.
The binding affinity of the synthetic peptides (Invitrogen, Carlsbad, Calif., USA) to HLA-A2 molecules, metabolically labelled with [^35S]-methionine, was measured in the assembly assay, as described previously. The assay is based on peptide-mediated stabilisation of empty HLA molecules released upon cell lysis, from the TAP-deficient cell line T2. Stably folded HLA-molecules were immune-precipitated using the HLA class I-specific, conformation-dependent mAb W6/32, and separated by isoelectric focusing (IEF) gel electrophoresis. MHC heavy chain bands were quantified using the ImageGauge Phosphorimager program (FUJI photo film Co., Carrollton, Tex., USA). The intensity of the band is directly related to the amount of peptide-bound class I MHC complex recovered during the assay. Subsequently, the extent of stabilisation of HLA-A2 is directly related to the binding affinity of the added peptide. The recovery of HLA-A2 was measured in the presence of 50, 5, 0.5, 0.05 μM of the relevant peptide. The C50 value was calculated for each peptide as the peptide concentration sufficient for half maximal stabilisation.
The amino acid sequence of the Bcl-2 protein was screened for the most probable HLA-A2 nona- and decamer peptide epitopes, using the main HLA-A2 specific anchor residues (2). […] The assembly assay is based on stabilisation of the class I molecule after loading of different concentrations of peptide to the TAP-deficient cell line T2. Subsequently correctly folded stable MHC heavy chains are immunoprecipitated using conformation-dependent antibodies.

[2] = tested on: peptide epitope-specific interferon-γ releasing effector cells in PBL; assay: IFN-γ ELISPOT on PBL stimulated once in vitro with peptide; assay type: cell-based, human; conditions: for patients with spontaneous CTL response / patients with spontaneous CTL response (%): PBL from 15 HLA-A2 positive breast cancer patients; for CTL response in cancer patients of different origin (in words): PBL from HLA-matched cancer patients; for pancreatic cancer patients with response: two HLA-A3+ pancreatic cancer patients; for healthy individuals with CTL response: 12 healthy HLA-A2 positive individuals; for breast cancer patients hosting an immune response: eighteen HLA-A2+ breast cancer patients; for breast cancer patients hosting an immune response / melanoma patients hosting an immune response: responder >25 spots per 10^5 cells; for melanoma patients hosting an immune response: six HLA-A2+ melanoma patients; for pancreatic cancer patients with CTL response: two HLA-A2 positive pancreatic cancer patients
Experimental: To extend the sensitivity of the ELISPOT assay, PBL were stimulated once in vitro prior to analysis. At day 0, PBL or crushed lymph nodes were thawed and plated in 2 ml/well at a concentration of 2×10^6 cells in 24-well plates (Nunc, Denmark) in X-vivo medium (Bio Whittaker, Walkersville, Md.), 5% heat-inactivated human serum, and 2 mM of L-glutamine in the presence of 10 μM of peptide. Two days later 20 IU/ml recombinant interleukin-2 (IL-2) (Chiron, Ratingen, Germany) was added to the cultures. The cultured cells were tested for reactivity in the ELISPOT on day 12.
The ELISPOT assay was used to quantify peptide epitope-specific interferon-γ releasing effector cells as described previously (4). Briefly, nitrocellulose bottomed 96-well plates (MultiScreen MAIP N45, Millipore, Hedehusene, Denmark) were coated with anti-IFN-γ antibody (1-D1K, Mabtech, Nacka, Sweden). The wells were washed, blocked by X-vivo medium, and cells added in duplicates at different cell concentrations. Peptides were then added to each well and the plates were incubated overnight. The following day, media was discarded and the wells were washed prior to addition of biotinylated secondary antibody (7-B6-1-Biotin, Mabtech). The plates were incubated for 2 hours, washed and Avidin-enzyme conjugate (AP-Avidin, Calbiochem, Life Technologies) was added to each well. Plates were incubated at RT for 1 hour and the enzyme substrate NBT/BCIP (Gibco, Life Technologies) was added to each well and incubated at RT for 5-10 min. The reaction was terminated by washing with tap-water upon the emergency of dark purple spots. The spots were counted using the ImmunoSpot® Series 2.0 Analyzer (CTL Analyzers, LLC, Cleveland, US) and the peptide specific CTL frequency could be calculated from the numbers of spot-forming cells. All assays were performed in triplicates for each peptide antigen.

[3] = tested on: antigen-specific CTL in PBL; assay: Granzyme B (GrB) ELISPOT; assay type: cell-based, human; conditions: breast cancer patient no. 16 and healthy control h1
Experimental: The Granzyme B (GrB) ELISPOT assay was used for measuring antigen-specific CTL cytotoxicity as described. Briefly, nitrocellulose bottomed 96-well plates (MultiScreen MAIP N45, Millipore) were coated with GrB Capture Antibody (BD Biosciences, Brondby, Denmark). The wells were washed and blocked by X-vivo medium with 5% human serum. The cells were added at different cell concentrations. T2 cells and peptides were then added to each well and the plates were incubated 4 hours, medium was discarded and the wells were washed prior to addition of GrB Detection Antibody (BD Biosciences). The plates were incubated for 2 hours, washed and Avidin horseradish peroxidase (BD Biosciences) was added to each well. Plates were incubated at RT for 1 hour AEC Substrate Reagent (BD Biosciences) was added to each well and incubated at RT for 5-10 min. The reaction was terminated by washing with tap-water upon the emergency of red spots. The spots were counted and the peptide specific CTL frequency was calculated like for the INF-γ ELISPOT. All assays were performed in duplicate or triplicates for each peptide antigen.

[4] = C50 (concentration of the peptide required for half maximal binding to HLA-A2)
[5] = read-out: C50 (concentration of the peptide required for half maximal binding to HLA-A2)
[6] = four HLA-A1+ breast cancer patients
[7] = seven HLA-A1+ melanoma patients
[8] = six healthy HLA-A1+ individuals
[9] = six HLA-A3+ breast cancer patients, 3×10^5 cells per well, Mcl-1 study

Q: For AAAGPALSPV [bcl80], which EC50 [1, 4] is on record?
A: 36 µM

Q: ALSPVPPVV [Bcl85] was tested. Which EC50 [1, 5] did it give?
A: 1 µM

Q: With ALVGACITL [Bcl224] as the sequence, how does the EC50 [1, 5] read?
A: 0.7 µM

Q: With ELYGPSMRPL [bcl200] as the sequence, how does the “C50 (concentration of the peptide required for half maximal binding to HLA-A2)” value [1] read?
A: did not bind

Q: FTARGRFATV [bcl124] was tested. Which EC50 [1, 5] did it give?
A: 1 µM

Q: How did the EC50 [1, 4] turn out when KTLLSLALV [bcl218] was run?
A: 2 µM

Q: How did the EC50 [1, 5] turn out when LLSLALVGA [bcl220] was run?
A: 1 µM

Q: With NIALWMTEYL [bcl172] as the sequence, how does the EC50 [1, 5] read?
A: 2 µM

Q: And the “patients with spontaneous CTL response” value [2]?
A: eight

Q: What about the “patients with spontaneous CTL response (%)” value [2] of the same sequence?
A: 50%

Q: With “PAEEEEDDLY (Peptide derived from Mcl-1) [Mcl-1166-175]” as the sequence, how does the “CTL response in cancer patients of different origin (in words)” value [2] read?
A: CTL responses were detected

Q: And the “breast cancer patients with response” value [2, 6]?
A: one of these

Q: And the “melanoma patients with response” value [2, 7]?
A: another of these

Q: What about the “healthy donors with response” value [2, 8] of the same sequence?
A: no responses were detected

Q: What does the source list for “QSLEIISRY (Peptide derived from Mcl-1) [Mcl-1177-185]”?
A: CTL response in cancer patients of different origin (in words) [2]: CTL responses were detected; breast cancer patients with response [2, 6]: three out of four; melanoma patients with response [2, 7]: one out of seven; healthy donors with response [2, 8]: no responses were detected

Q: What does the source list for “RIAAWMATY (Peptide derived from Bcl-XL) [Bcl-XL165-173]”?
A: multiple myeloma patients with response ([2]; HLA-A3+ multiple myeloma patients): one out of four; CTL response in cancer patients of different origin (in words) [2]: strong and frequent CTL responses; breast cancer patients with response ([2]; five HLA-A3+ breast cancer patients, 10^5 cells per well): four out of five; melanoma patients with response ([2]; four HLA-A3+ melanoma patients): four out of four; healthy individuals with response ([2]; seven HLA-A3+ healthy individuals): not able to detect a response; pancreatic cancer patients with response ([2]; Bcl-XL study): two out of two

Q: Which “healthy individuals with CTL response” value [2] does the source give for “RIAAWMATYL (Peptide derived from Bcl-XL) [Bcl-XL165-174]” here?
A: no responses were detected

Q: What about the “CTL response in cancer patients of different origin (in words)” value [2] of the same sequence?
A: strong and frequent CTL responses

Q: And the “breast cancer patients hosting an immune response” value [2]?
A: four

Q: What about the “melanoma patients hosting an immune response” value [2] of the same sequence?
A: two

Q: What about the “pancreatic cancer patients with CTL response” value [2] of the same sequence?
A: one

Q: “RLKRDWLVK (Modified Mcl-1 peptide) [Mcl-1300-308L2]” was tested. Which “breast cancer patients with spontaneous immune response” value ([2]; number examined not given, data not shown) did it give?
A: two

Q: For “RLLFFAPTR (Peptide derived from Mcl-1) [Mcl-195-103]”, which “healthy donors with response” value ([2]; 10 healthy HLA-A3+ individuals) is on record?
A: no responses were detected

Q: What about the “CTL response in cancer patients of different origin (in words)” value [2] of the same sequence?
A: strong and frequent CTL responses

Q: And the “breast cancer patients with response” value [2, 9]?
A: five

Q: What about the “B-CLL patients with response” value ([2]; six HLA-A3+ patients suffering from B-CLL) of the same sequence?
A: two

Q: What about the “pancreatic cancer patients with response” value ([2]; Mcl-1 study) of the same sequence?
A: two out of two

Q: For “RTKRDWLVK (Peptide derived from Mcl-1) [Mcl-1300-308]”, which “healthy donors with response” value ([2]; 10 healthy HLA-A3+ individuals) is on record?
A: no responses were detected

Q: And the “CTL response in cancer patients of different origin (in words)” value [2]?
A: strong and frequent CTL responses

Q: And the “breast cancer patients with response” value [2, 9]?
A: three

Q: And the “pancreatic cancer patients with response” value ([2]; Mcl-1 study)?
A: one of these

Q: With SLALVGACI [bcl222] as the sequence, how does the EC50 [1, 5] read?
A: 1 µM

Q: Which “C50 (concentration of the peptide required for half maximal binding to HLA-A2)” value [1] does the source give for SLKTLLSLAL [bcl216, SLKTLLSLAL] here?
A: did not bind

Q: With “TAYQSFEQV (Peptide derived from Bcl-XL) [Bcl-XL118-126]” as the sequence, how does the “CTL response in cancer patients of different origin (in words)” value [2] read?
A: weak spontaneous CTL response

Q: How did the “healthy individuals with CTL response” value [2] turn out when “VAFFSFGGAL (Peptide derived from Bcl-XL) [Bcl-XL141-150]” was run?
A: no responses were detected

Q: What about the “CTL response in cancer patients of different origin (in words)” value [2] of the same sequence?
A: strong and frequent CTL responses

Q: And the “breast cancer patients hosting an immune response” value [2]?
A: Four out of eighteen

Q: What about the “melanoma patients hosting an immune response” value [2] of the same sequence?
A: not able to detect a response

Q: What about the “pancreatic cancer patients with CTL response” value [2] of the same sequence?
A: one of the two

Q: How did the “healthy individuals with CTL response” value [2] turn out when “VLVSRIAAWM (Peptide derived from Bcl-XL) [Bcl-XL161-170]” was run?
A: no responses were detected

Q: And the “CTL response in cancer patients of different origin (in words)” value [2]?
A: strong and frequent CTL responses

Q: And the “breast cancer patients hosting an immune response” value [2]?
A: six

Q: What about the “pancreatic cancer patients with CTL response” value [2] of the same sequence?
A: one

Q: With WLSLKTLLSL [bcl214] as the sequence, how does the EC50 [1, 5] read?
A: 3 µM

Q: What about the “GrB release in controls” value [3] of the same sequence?
A: no GrB release was detected

Q: What about the “patients with spontaneous CTL response” value [2] of the same sequence?
A: eleven

Q: What about the “patients with spontaneous CTL response (%)” value [2] of the same sequence?
A: ≈ 75%

Q: What about the “CLL patients with Bcl-2 response” value ([2]; ten HLA-A2 positive CLL patients, reactivity against bcl208 and bcl214, not broken down by peptide) of the same sequence?
A: five

Q: And the “AML patients with Bcl-2 response” value ([2]; three AML patients, reactivity against bcl208 and bcl214, not broken down by peptide)?
A: two

Q: What about the “pancreatic cancer patients with CTL response” value [2] of the same sequence?
A: both

Q: “WMATYLNDHL (Peptide derived from Bcl-XL) [Bcl-XL169-178]” was tested. Which “CTL response in cancer patients of different origin (in words)” value [2] did it give?
A: weak spontaneous CTL response

Q: What does the source list for YLNRHLHTWI [bcl180]?
A: EC50 [1, 5]: 20 µM and 15 µM; patients with spontaneous CTL response [2]: four; patients with spontaneous CTL response (%) [2]: ≈ 25%
